Target: Receptor tyrosine-protein kinase erbB-4 (Homo sapiens) (UniProt Q15303)
Assay: ERBB4 kinase inhibitors, dose response, biochemical, Z'-LYTE FRET, direct format, recombinant human (AID 1671295)
Details: Z'-LYTE FRET kinase activity

Receptor tyrosine-protein kinase erbB-4 (Homo sapiens), sequence (Q15303 whole entry, looked up): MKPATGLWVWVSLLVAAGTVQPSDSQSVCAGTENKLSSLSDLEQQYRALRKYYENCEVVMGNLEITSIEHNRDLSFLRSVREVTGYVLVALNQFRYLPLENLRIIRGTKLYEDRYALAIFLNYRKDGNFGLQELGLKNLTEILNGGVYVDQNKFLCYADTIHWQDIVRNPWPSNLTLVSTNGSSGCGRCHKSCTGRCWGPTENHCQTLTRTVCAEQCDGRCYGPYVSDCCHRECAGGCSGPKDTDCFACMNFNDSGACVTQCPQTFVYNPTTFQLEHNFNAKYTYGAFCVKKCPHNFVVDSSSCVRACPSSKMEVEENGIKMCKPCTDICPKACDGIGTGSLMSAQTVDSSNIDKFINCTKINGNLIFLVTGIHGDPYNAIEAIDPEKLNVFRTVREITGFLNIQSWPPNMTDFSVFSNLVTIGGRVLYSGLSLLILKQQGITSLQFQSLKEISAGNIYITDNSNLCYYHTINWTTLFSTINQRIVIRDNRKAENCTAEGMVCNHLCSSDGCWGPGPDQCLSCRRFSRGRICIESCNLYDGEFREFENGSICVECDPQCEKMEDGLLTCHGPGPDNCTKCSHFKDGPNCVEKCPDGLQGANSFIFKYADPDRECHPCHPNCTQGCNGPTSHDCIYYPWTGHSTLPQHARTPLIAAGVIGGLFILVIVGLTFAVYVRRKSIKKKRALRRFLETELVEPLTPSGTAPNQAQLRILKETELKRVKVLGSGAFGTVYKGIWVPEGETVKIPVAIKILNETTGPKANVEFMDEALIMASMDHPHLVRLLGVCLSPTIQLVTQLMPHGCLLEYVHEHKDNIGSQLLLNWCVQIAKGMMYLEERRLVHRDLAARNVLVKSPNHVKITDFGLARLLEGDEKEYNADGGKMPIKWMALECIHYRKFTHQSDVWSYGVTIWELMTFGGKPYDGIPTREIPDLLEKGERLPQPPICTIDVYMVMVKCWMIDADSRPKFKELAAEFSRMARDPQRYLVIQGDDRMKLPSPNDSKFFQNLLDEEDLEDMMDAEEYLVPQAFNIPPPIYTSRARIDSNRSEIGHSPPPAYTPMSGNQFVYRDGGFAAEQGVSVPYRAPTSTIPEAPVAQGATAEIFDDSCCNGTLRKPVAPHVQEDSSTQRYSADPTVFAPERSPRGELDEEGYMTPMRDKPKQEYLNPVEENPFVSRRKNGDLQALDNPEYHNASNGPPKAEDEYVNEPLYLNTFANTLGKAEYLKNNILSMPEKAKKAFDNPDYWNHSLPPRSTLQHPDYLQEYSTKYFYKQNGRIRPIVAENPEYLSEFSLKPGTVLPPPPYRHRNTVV

`COc1cc2ncnc(Nc3cccc(Cl)c3)c2cc1OC` was tested, and the IC50 was 154 nM.

Reference: PubChem BioAssay AID1671295
